Values of other authors, collected in patent US20240285564A1, “USE OF (S)-3-AMINO-4-(DIFLUOROMETHYLENYL)CYCLOPENT-1-ENE-1-CARBOXYLIC ACID FOR GASTROINTESTINAL TRACT DISORDERS AND AS AN IMMUNOMODULATORY AGENT” (Ovid Therapeutics Inc., priority 2023, published 2024).
pIC50, pKi: −log10 of the molar value.

Tests used:
[1] = molecular target: alanine aminotransferase (Ala-AT)
OAT = molecular target: T1, OAT (Homo sapiens, UniProt P04181)
T1 sequence (P04181 36-439 limits assumed): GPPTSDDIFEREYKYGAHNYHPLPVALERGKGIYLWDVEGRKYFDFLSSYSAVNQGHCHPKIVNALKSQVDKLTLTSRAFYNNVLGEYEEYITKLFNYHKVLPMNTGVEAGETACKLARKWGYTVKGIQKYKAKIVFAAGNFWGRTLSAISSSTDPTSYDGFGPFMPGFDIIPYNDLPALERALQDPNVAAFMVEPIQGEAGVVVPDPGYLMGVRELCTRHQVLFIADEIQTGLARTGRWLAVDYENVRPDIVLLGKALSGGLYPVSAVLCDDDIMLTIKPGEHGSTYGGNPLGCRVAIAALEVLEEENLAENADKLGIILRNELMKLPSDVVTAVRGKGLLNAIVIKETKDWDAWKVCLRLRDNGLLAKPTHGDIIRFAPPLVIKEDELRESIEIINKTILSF

[2] = molecular target: aspartate aminotransferase (Asp-AT)
[3] = read-out: IC50 (reversible inhibition)

Row | SMILES | pIC50 [1, 3] | kintact (OAT) [min⁻¹] | kintact/KI (OAT) [M⁻¹ s⁻¹] | times more efficient an inactivator of OAT than CPP-115 (OAT; relative to CPP-115) [times] | pIC50 [2, 3] | inactivation or inhibition of off-target enzyme [1] | pKi (OAT) | inactivation or inhibition of off-target enzyme [2]
1 | N[C@H]1C=C(C(=O)O)CC1=C(F)F [(S)-3-amino-4-(difluoromethylenyl)cyclopent-1-ene-1-carboxylic acid] | < 2.40 | 0.025 | 127 | 9.0 | < 2.40 | – | – | –
2 | N[C@H]1C[C@@H](C(=O)O)CC1=C(F)F [CPP-115, (1S,3S)-3-amino+difluoromethylenyl-1-cyclopentanoic acid, reference compound] | – | 0.097 | – | – | – | not to inactivate or inhibit | 3.94 | not to inactivate or inhibit
